Measured values from US7456171B2, “1,4-Diazabicyclo[3.2.2]nonanecarboxamide derivatives, preparation and therapeutic use thereof” (Sanofi-Aventis, priority 2002, dated 2008).

O=C(c1c[nH]c2nc(Cl)ccc12)N1CCN2CCC1CC2
melting point: 228 to 229 °C
